From patent publication US12661410B2, “Compounds for targeted degradation of RET” (C4 Therapeutics, Inc., priority 2020, dated 2026) come the findings set out here.

For orientation: Emax means the maximal effect, on the per cent scale that the assay sets. As usually defined, the DC50 is the midpoint of the concentration-degradation curve.

Assay [1] has as its target T1, RET (658-1114) (Homo sapiens, UniProt P07949).
T1 construct: 658-1114; expressed in transfected cells; host or cells: 293T.144 (293T cells, generated in-house)
T1 sequence (P07949 658-1114): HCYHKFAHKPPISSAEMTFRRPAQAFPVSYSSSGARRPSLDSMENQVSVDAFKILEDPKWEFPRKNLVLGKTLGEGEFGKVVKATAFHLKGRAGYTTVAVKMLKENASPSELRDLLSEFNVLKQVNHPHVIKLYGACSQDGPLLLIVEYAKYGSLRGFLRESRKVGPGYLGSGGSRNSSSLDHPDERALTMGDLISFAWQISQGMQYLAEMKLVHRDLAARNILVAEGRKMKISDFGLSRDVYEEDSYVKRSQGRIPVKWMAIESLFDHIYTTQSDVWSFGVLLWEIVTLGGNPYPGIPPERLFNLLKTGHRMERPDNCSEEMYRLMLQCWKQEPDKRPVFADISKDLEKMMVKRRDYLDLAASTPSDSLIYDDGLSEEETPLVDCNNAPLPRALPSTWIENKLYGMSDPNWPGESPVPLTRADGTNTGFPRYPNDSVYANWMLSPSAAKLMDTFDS
The experiment in a line: HiBiT-Degradation, RET wild-type degradation assay (Nano-Glo HiBiT Lytic), 293T.144 cells. In kind it is cell-based. The conditions noted are these: for Emax / DC50: 6.0 hours. The method, boiled down: (§1)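 Cells were plated and dosed with an 11-point half-log series (highest 10 μM) in duplicate. After 6 hours they were lysed with HiBiT lytic detection reagent and luminescence measured. DC50 and percent remaining protein (Emax) came from the dose-response curves.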
For orientation: HiBiT is a short tag that completes a luciferase, so light tracks the accessible tagged protein.

For assay [2], the target named is T2, RET(KD: 658-1114 G810R) (Homo sapiens, UniProt P07949, G810R).
T2 construct: 658-1114; expressed in transfected cells; host or cells: 293T.165 (293T cells, generated in-house)
T2 sequence (P07949 658-1114 G810R): T1 sequence (P07949 658-1114) with G153R
The experiment in a line: HiBiT-Degradation, RET G810R degradation assay (Nano-Glo HiBiT Lytic), 293T.165 cells. The format is cell-based. The conditions noted are these: for Emax / DC50: 6.0 hours. The method, boiled down:
as §1

The mark [3] stands for this setting: % remaining protein, read-out: 293T.144 RET (658-1114) 6.0 hours (Emax).
Where [4] appears, read: half-maximal degradation concentration, read-out: 293T.144 RET (658-1114) 6.0 hours (DC50).
Where [5] appears, read: % remaining protein, read-out: 293T.165 RET(KD: 658-1114 G810R) 6.0 hours (Emax).
Where [6] appears, read: half-maximal degradation concentration, read-out: 293T.165 RET(KD: 658-1114 G810R) 6.0 hours (DC50).
The mark [7] stands for this setting: HiBiT-Degradation, read-out: 293T.144 RET (658-1114) 6.0 hours (DC50).
Setting [8] is: HiBiT-Degradation, read-out: 293T.144 RET (658-1114) 6.0 hours (Emax).
The mark [9] stands for this setting: HiBiT-Degradation, read-out: 293T.165 RET(KD: 658-1114 G810R) 6.0 hours (DC50).

Numbering of substitutions follows the chain as printed. Read-outs that look alike come from different tables or passages of the source.

Consider `N#Cc1cnn2cc(-c3cnn(C4CCN(C(=O)CC5(O)CCN(c6ccc(NC7CCC(=O)NC7=O)cc6F)CC5)CC4)c3)nc(-c3ccc(N4CCC(Oc5ccccn5)CC4)nc3)c12` (stereo not drawn) [Compound 109, 6-[1-[1-[2-[1-[4-[(2,6-dioxo-3-piperidyl)amino]-2-fluoro-phenyl]-4-hydroxy-4-piperidyl]acetyl]-4-piperidyl]pyrazol-4-yl]-4-[6-[4-(2-pyridyloxy)-1-piperidyl]-3-pyridyl]pyrazolo[1,5-a]pyrazine-3-carbonitrile], for which, in assay [1], the “293T.144 RET (658-1114) 6.0 hours (IP) [nM]” value is on record as “++++ (<50 nM = ++++)”. The maximal effect (Emax) in assay [1] (setting [3]) and in assay [2] (setting [5]) was below 30% in each case. Besides, the half-maximal degradation concentration (DC50) in assay [1] (setting [4]) and in assay [2] (setting [6]) was below 50 nM throughout. Also, in assay [2], the “293T.165 RET(KD: 658-1114 G810R) 6.0 hours (IP) [nM]” value is reported as “++++ (<50 nM = ++++)”.

Regarding `CCC1(C(=O)NC2CCC2)CCN(c2ccc(-c3nc(-c4cnn(C5CCN([C@H]6CCN(c7ccc(N[C@H]8CCC(=O)NC8=O)cc7F)CC6(F)F)CC5)c4)cn4ncc(C#N)c34)cn2)CC1` (single isomer, unassigned) [Compound 191], the “293T.144 RET (658-1114) 6.0 hours (IP) [nM]” value in assay [1] is reported as “++++ (<50 nM = ++++)”. In addition, the maximal effect (Emax) in assay [1] (setting [3]) and in assay [2] (setting [5]) was below 30% throughout. Also, the DC50 in assay [1] (setting [4]) was below 50 nM; in assay [2] (setting [6]), below 100 nM. In assay [2], the “293T.165 RET(KD: 658-1114 G810R) 6.0 hours (IP) [nM]” value is on record as “+++ (<100 nM = +++)”.

`CCC1(C(=O)NC(C)(C)C)CCN(c2ccc(-c3nc(-c4cnn(C5CCN(C(=O)CC6(O)CCN(c7ccc(NC8CCC(=O)NC8=O)cc7Cl)CC6)CC5)c4)cn4ncc(C#N)c34)cn2)CC1` (stereo not drawn) [Compound 102, N-tert-butyl-1-[5-[6-[1-[1-[2-[1-[2-chloro-4-[(2,6-dioxo-3-piperidyl)amino]phenyl]-4-hydroxy-4-piperidyl]acetyl]-4-piperidyl]pyrazol-4-yl]-3-cyano-pyrazolo[1,5-a]pyrazin-4-yl]-2-pyridyl]-4-ethyl-piperidine-4-carboxamide]: in assay [1], the “293T.144 RET (658-1114) 6.0 hours (IP) [nM]” value was “++++ (<50 nM = ++++)”. Also, the maximal effect (Emax) in assay [1] (setting [3]) and in assay [2] (setting [5]) was below 30% in each case. Also, the DC50 in assay [1] (setting [4]) and in assay [2] (setting [6]) was below 50 nM in each case. In addition, in assay [2], the “293T.165 RET(KD: 658-1114 G810R) 6.0 hours (IP) [nM]” value was “++++ (<50 nM = ++++)”.

Regarding `CCC1(C(=O)NC(C)C)CCN(c2ccc(-c3cc(-c4ccc(N5CCN(C(=O)CN6CCC(c7ccc8c(N9CCC(=O)NC9=O)nn(C)c8c7)CC6)CC5)cc4)cn4ncc(C#N)c34)cn2)CC1` [Compound 64, 1-[5-[3-cyano-6-[4-[4-[2-[4-[3-(2,4-dioxohexahydropyrimidin-1-yl)-1-methyl-indazol-6-yl]-1-piperidyl]acetyl]piperazin-1-yl]phenyl]pyrazolo[1,5-a]pyridin-4-yl]-2-pyridyl]-4-ethyl-N-isopropyl-piperidine-4-carboxamide], the “293T.144 RET (658-1114) 6.0 hours (IP) [nM]” value in assay [1] (HiBiT-Degradation) is “++++ (< 50 nM = ++++)”. For the same compound, the 50% degradation concentration (DC50) in assay [1] (setting [7]) was below 50 nM; in assay [2] (setting [6]), below 100 nM; in assay [2] (setting [9]) it was below 100 nM. Besides, the maximum response (Emax) in assay [1] (setting [8]) and in assay [2] (setting [5]) was below 30% in each case. Also, in assay [2] (HiBiT-Degradation), the “293T.165 RET(KD: 658-1114 G810R) 6.0 hours (Emax)” value is recorded as “++++ (< 30% = ++++)”. Further, in assay [2] (HiBiT-Degradation), the “293T.165 RET(KD: 658-1114 G810R) 6.0 hours (IP) [nM]” value is listed as “++++ (< 50 nM = ++++)”.

`CCC1(C(=O)NC(C)C)CCN(c2ncc(-c3nc(-c4cnn(C5CCN(C(=O)CC6(O)CCN(c7ccc(NC8CCC(=O)NC8=O)cc7Cl)CC6)CC5)c4)cn4ncc(C#N)c34)cc2F)CC1` (stereo not drawn) [Compound 120, 1-[5-[6-[1-[1-[2-[1-[2-chloro-4-[(2,6-dioxo-3-piperidyl)amino]phenyl]-4-hydroxy-4-piperidyl]acetyl]-4-piperidyl]pyrazol-4-yl]-3-cyano-pyrazolo[1,5-a]pyrazin-4-yl]-3-fluoro-2-pyridyl]-4-ethyl-N-isopropyl-piperidine-4-carboxamide]: in assay [1], the “293T.144 RET (658-1114) 6.0 hours (IP) [nM]” value is “++++ (<50 nM = ++++)”. Further, the results for the Emax in assay [1] (setting [3]) and in assay [2] (setting [5]) were below 30% and below 50%, respectively. Further, the half-maximal degradation concentration (DC50) was below 50 nM in assay [1] (setting [4]) and below 100 nM in assay [2] (setting [6]). Besides, in assay [2], the “293T.165 RET(KD: 658-1114 G810R) 6.0 hours (IP) [nM]” value is recorded as “++++ (<50 nM = ++++)”.

With `N#Cc1cnn2cc(-c3ccc(N4CCN(C(=O)CN5CCC(c6ccc(NC7CCC(=O)NC7=O)cc6)CC5)CC4)cc3)cc(-c3ccc(N4CCOCC4)nc3)c12` (stereo not drawn) [Compound 24, 6-(4-(4-(2-(4-(4-((2,6-Dioxopiperidin-3-yl)amino)phenyl)piperidin-1-yl)acetyl)piperazin-1-yl)phenyl)-4-(6-morpholinopyridin-3-yl)pyrazolo[1,5-a]pyridine-3-carbonitrile], the “293T.144 RET (658-1114) 6.0 hours (IP) [nM]” value in assay [1] (HiBiT-Degradation) is on record as “++++ (< 50 nM = ++++)”. In addition, the figures for the DC50 in assay [1] (setting [7]), in assay [2] (setting [6]) and in assay [2] (setting [9]) were below 50 nM, below 100 nM and below 100 nM, respectively. In addition, the maximal effect (Emax) in assay [1] (setting [8]) was below 30%; in assay [2] (setting [5]), below 50%. Further, the “293T.165 RET(KD: 658-1114 G810R) 6.0 hours (Emax)” value in assay [2] (HiBiT-Degradation) is “+++ (<50% = +++)”. Also, in assay [2] (HiBiT-Degradation), the “293T.165 RET(KD: 658-1114 G810R) 6.0 hours (IP) [nM]” value is “++++ (< 50 nM = ++++)”.

Turning to `N#Cc1cnn2cc(-c3cnn(C4CCN(C(=O)CC5(O)CCN(c6ccc(NC7CCC(=O)NC7=O)cc6F)CC5)CC4)c3)nc(-c3ccc(N4CC5CC(C4)N5Cc4ccccc4)nc3)c12` (stereo not drawn) [Compound 176, 4-(6-(6-benzyl-3,6-diazabicyclo[3.1.1]heptan-3-yl)pyridin-3-yl)-6-(1-(1-(2-(1-(4-((2,6-dioxopiperidin-3-yl)amino)-2-fluorophenyl)-4-hydroxypiperidin-4-yl)acetyl)piperidin-4-yl)-1H-pyrazol-4-yl)pyrazolo[1,5-a]pyrazine-3-carbonitrile], the “293T.144 RET (658-1114) 6.0 hours (IP) [nM]” value in assay [1] is “++++ (<50 nM = ++++)”. For the same compound, the maximal effect (Emax) in assay [1] (setting [3]) and in assay [2] (setting [5]) was below 30% each time. Further, the 50% degradation concentration (DC50) in assay [1] (setting [4]) and in assay [2] (setting [6]) was below 50 nM in each case. Besides, the “293T.165 RET(KD: 658-1114 G810R) 6.0 hours (IP) [nM]” value in assay [2] is on record as “++++ (<50 nM = ++++)”.

Consider `N#Cc1cnn2cc(-c3cnn(C4CCN(C(=O)NC5CCN(c6ccc(NC7CCC(=O)NC7=O)cc6F)CC5)CC4)c3)cc(-c3ccc(N4CCN(Cc5ccccn5)CC4)nc3)c12` (stereo not drawn) [Compound 77, 4-[4-[3-cyano-4-[6-[4-(2-pyridylmethyl)piperazin-1-yl]-3-pyridyl]pyrazolo[1,5-a]pyridin-6-yl]pyrazol-1-yl]-N-[1-[4-[(2,6-dioxo-3-piperidyl)amino]-2-fluoro-phenyl]-4-piperidyl]piperidine-1-carboxamide], for which the “HiBiT-Degradation 293T.144 RET (658-1114) 6.0 hours (IP) [nM]” value in assay [1] (RET wild-type) is “++++ (< 50 nM = ++++)”. Further, the 50% degradation concentration (DC50) was below 50 nM in assay [1] (RET wild-type, read-out: HiBiT-Degradation 293T.144 RET (658-1114) 6.0 hours (DC50)); below 100 nM in assay [2] (setting [6]); below 100 nM in assay [2] (RET G810R, read-out: HiBiT-Degradation 293T.165 RET(KD: 658-1114 G810R) 6.0 hours (DC50)). Besides, the Emax in assay [1] (RET wild-type, read-out: HiBiT-Degradation 293T.144 RET (658-1114) 6.0 hours (Emax)) is below 30%; in assay [2] (setting [5]), below 50%; in assay [2] (RET G810R, read-out: HiBiT-Degradation 293T.165 RET(KD: 658-1114 G810R) 6.0 hours (Emax)), below 50%. Further, the “HiBiT-Degradation 293T.165 RET(KD: 658-1114 G810R) 6.0 hours (IP) [nM]” value in assay [2] (RET G810R) is reported as “++++ (< 50 nM = ++++)”.
